Source: patent US20260049071A1, “PROTEIN TYROSINE KINASE INHIBITOR AND MEDICAL USE THEREOF” (BEYANG THERAPEUTICS CO., LTD., priority 2022, published 2026)
Converted amounts (≈) assume the structure as drawn. Read-outs that look alike come from different tables or passages of the source.

Columns and labels:
[1] = Compound distribution in plasma and ocular tissues after single ocular dose in Dutch belted rabbits; assay type: in vivo; settings: eye drops 1 mg/mL (0.05 mg/eye), 0.5 h, 4 h or 8 h post-dose
Excerpt: Age-related macular degeneration and diabetic retinopathy are associated with neovascularization in the posterior eye segment Due to the corneal and conjunctival barrier, one of the main problems with topical eye drops used to treat the posterior eye segment disorders is the low-efficiency delivery of the drug to the posterior eye segment. Therefore, it is important to measure the distribution of the compound in an ophthalmic formulation in several major ocular tissues. […] Dutch belted rabbits were used in this experiment. […]
In this experiment, male Dutch belted rabbits weighed 1.5-2.5 kg were purchased from Pizhou Dongfang Breeding Co., Ltd. Any operation on the laboratory animals in this experiment was in compliance with the relevant SOP requirements of the experimental operation of 3D BioOptima, Suzhou, China, and had been approved by the Institutional Animal Care and Use Committee (IACUC) of 3D BioOptima. […] The prepared dose formulations were freshly prepared on the day of administration, samples were retained and the actual concentration of the dose formulation was determined.
On the day of the experiment, animals were administrated at 1 mg/mL (0.05 mg/eye, 50 μL/eye). […] The concentration of each analyte in the rabbit ocular tissues and plasma obtained in this experiment was determined by LC-MS/MS. […]

[2] = statement in the summary; cited from earlier work
[3] = system: melanin; experiment: Binding capacity of compounds to melanin; assay type: in vitro ADME; settings: Sepia officinalis (cuttlefish), melanin suspension (1 mg/mL); 1 mg/mL melanin suspension in PBS pH 7.4, 2 μM compound, 2 h at 37° C.; read-out: Fu % (percentage of free drug, not bound to melanin)
Summary of the method: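 Compound at 2 μM final incubated with 1 mg/mL Sepia melanin suspension in PBS pH 7.4 for 2 h at 37 °C with shaking; blank control in PBS with 0.1% BSA. Supernatant concentrations measured by LC-MS/MS; bound fraction from melanin versus control samples, free fraction as 100 − Fb.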

[4] = target: FLT4 (VEGFR3) (Homo sapiens (Human), UniProt P35916); experiment: Kinase inhibition, Mobility Shift Assay (VEGFR3); assay type: biochemical
FLT4 (VEGFR3), sequence (P35916 25-1363): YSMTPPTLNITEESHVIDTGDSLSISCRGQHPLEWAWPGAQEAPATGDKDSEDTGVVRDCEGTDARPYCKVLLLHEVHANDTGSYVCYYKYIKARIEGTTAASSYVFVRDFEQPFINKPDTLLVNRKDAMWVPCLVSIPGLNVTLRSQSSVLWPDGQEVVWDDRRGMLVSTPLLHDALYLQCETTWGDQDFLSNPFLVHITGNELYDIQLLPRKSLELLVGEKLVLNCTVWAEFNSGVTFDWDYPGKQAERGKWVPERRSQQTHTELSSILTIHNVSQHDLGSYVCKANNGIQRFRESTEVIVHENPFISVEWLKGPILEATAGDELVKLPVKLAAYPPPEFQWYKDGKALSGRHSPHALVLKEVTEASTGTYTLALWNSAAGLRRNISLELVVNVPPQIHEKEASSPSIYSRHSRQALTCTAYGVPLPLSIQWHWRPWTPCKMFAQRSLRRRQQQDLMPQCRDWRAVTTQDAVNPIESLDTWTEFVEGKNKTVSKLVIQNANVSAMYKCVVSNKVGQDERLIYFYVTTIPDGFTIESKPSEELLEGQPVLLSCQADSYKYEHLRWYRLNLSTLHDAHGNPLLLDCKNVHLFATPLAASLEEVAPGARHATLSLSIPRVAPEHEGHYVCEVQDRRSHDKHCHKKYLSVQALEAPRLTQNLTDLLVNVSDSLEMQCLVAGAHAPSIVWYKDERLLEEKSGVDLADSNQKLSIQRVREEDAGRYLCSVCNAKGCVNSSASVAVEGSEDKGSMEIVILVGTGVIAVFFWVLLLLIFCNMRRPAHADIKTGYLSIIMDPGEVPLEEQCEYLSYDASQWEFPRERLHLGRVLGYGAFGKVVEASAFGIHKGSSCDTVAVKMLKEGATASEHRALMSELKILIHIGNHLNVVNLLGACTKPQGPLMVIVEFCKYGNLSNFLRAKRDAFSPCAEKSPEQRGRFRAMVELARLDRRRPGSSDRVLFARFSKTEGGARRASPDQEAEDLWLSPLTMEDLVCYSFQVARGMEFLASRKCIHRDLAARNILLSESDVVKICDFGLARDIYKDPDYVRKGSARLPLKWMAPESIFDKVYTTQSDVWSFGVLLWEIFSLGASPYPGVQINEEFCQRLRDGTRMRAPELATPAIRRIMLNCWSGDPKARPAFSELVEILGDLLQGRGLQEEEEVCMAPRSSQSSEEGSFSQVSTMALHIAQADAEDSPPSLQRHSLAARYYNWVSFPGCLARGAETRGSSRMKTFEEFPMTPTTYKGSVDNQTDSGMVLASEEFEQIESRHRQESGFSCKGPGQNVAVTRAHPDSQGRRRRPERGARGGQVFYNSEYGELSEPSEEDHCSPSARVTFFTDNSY
Summary of the method: (§1)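 Mobility shift assay: each kinase preincubated 10 min at room temperature with compound, then reacted with FAM-labeled peptide, MgCl2 and ATP at 28° C. for varying times. Substrate-to-product conversion read on Caliper; % inhibition normalised to no-kinase and DMSO controls, and IC50 fitted.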

[5] = target: FLT1 (VEGFR1) (Homo sapiens (Human), UniProt P17948); experiment: Kinase inhibition, Mobility Shift Assay (VEGFR1); assay type: biochemical
Summary of the method: as §1

[6] = target: VEGFR2 autophosphorylation (pVEGFR2) in HUVEC cells (Homo sapiens (Human), UniProt P35968); experiment: Inhibition of VEGF-induced VEGFR2 autophosphorylation in HUVEC cells (ELISA); assay type: cell-based; settings: 50 ng/ml human VEGF, compound 1 h
VEGFR2 autophosphorylation (pVEGFR2) in HUVEC cells, sequence (P35968 20-1356): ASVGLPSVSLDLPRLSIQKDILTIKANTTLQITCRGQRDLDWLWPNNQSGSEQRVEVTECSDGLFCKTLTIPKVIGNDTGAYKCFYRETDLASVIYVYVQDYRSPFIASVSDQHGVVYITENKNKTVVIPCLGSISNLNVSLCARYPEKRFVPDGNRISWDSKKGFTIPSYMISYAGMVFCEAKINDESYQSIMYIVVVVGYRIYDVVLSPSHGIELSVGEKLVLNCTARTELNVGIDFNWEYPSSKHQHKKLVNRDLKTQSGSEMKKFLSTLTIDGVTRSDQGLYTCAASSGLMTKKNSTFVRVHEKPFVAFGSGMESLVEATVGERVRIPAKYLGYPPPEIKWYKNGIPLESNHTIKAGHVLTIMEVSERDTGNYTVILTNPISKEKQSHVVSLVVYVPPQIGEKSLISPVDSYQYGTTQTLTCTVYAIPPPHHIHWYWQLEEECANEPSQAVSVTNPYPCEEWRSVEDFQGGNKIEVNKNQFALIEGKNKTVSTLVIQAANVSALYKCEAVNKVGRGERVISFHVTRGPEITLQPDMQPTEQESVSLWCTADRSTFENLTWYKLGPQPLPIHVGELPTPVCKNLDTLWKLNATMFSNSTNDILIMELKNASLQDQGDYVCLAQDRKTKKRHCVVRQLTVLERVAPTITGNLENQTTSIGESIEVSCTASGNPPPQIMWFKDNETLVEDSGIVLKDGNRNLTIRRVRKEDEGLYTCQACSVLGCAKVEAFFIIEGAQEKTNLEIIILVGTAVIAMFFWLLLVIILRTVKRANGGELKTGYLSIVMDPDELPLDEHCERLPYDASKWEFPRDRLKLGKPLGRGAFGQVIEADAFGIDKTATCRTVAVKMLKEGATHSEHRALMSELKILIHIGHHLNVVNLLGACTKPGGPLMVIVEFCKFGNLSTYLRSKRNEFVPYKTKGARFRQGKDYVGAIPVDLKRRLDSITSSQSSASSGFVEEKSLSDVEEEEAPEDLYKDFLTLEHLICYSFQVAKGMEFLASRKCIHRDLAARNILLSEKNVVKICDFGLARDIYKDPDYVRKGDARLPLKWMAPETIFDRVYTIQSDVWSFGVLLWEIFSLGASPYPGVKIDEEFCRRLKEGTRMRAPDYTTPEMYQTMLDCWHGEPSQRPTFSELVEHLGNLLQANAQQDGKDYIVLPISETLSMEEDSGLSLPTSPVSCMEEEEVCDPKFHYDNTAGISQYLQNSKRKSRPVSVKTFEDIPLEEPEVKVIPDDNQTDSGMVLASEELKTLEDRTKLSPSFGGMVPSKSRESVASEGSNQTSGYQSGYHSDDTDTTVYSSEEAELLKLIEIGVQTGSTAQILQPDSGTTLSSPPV
Excerpt: Vascular endothelial growth factor receptor 2 (VEGFR2) is a primary receptor for VEGF-induced endothelial cell signaling. After ligand binding, VEGFR2 is autophosphorylated and activated. The main function of signaling from VEGFR2 is to induce vascularization during development and after tissue injury, and to bypass blocked blood vessels. Pathologically, VEGF and VEGFR2 are involved in tumor angiogenesis and vascular leakage. They are considered to be main participants in many different cancers and ocular diseases that accompany pathological neovascularization. This assay measured the ability of the compounds to inhibit VEGF-induced VEGFR2 autophosphorylation (pVEGFR2) in HUVEC cells by using ELISA.
Culture cells in a cell culture flask to reach a fusion degree of 60%-80% before cell inoculation. Dilute the cell suspension to […] with a pre-warmed complete medium. Add 80 μL of the cell suspension to all wells of a 96-well cell plate (Corning-3599); and incubate the plate overnight at 37° C. in the presence of 5% CO2. Dissolve the compound powder to 10 mM with DMSO and store it in a nitrogen cabinet. Compound dilution plate: Add a reference compound Ponatinib or a compound to be tested to a 96 V-well plate (Axygen-WIpp 2280) at concentrations achieved as follows: performing 3-fold gradient dilution starting from 5 mM (5 μL of 10 mM compound solution plus 5 μL of DMSO) for a total of 8 concentration points. […] Transfer 20 μL of the diluted compound from the intermediate plate to a cell plate. Then, incubate the cell plate for 1 h at 37° C. in the presence of 5% CO2. After the compound was treated for 1 h, add 25 μL of 250 ng/ml human VEGF at a final concentration of 50 ng/ml to a 96-well plate; and incubate the plate for 5 min at 37° C. in the presence of 5% CO2, centrifuge the plate for 10 min at 3,000 rpm, remove the medium and wash the cells once with 300 μL of pre-chilled DPBS per well. Then, centrifuge the plate for 10 min at 4,000 rpm, remove DPBS, and add 110 μL of pre-chilled 1× cell lysis buffer per well to the 96-well plate. Shake the plate for 40 min at 4° C. Then, freeze the plate in a refrigerator at −80° C. On the next day, remove the plate from the refrigerator at −80° C., thaw the plate, centrifuge the plate for 10 min at 3500 rpm, and add 100 μL of the supernatant per well to an ELISA plate. Seal the plate and incubate it for 2 h at 37° C. Wash the wells 4 times with 1× wash buffer. Add 100 μL of recombinant detection antibody per well. Seal the plate, incubate the plate for 1 h at 37° C., and repeat the step of plate washing. Add 100 μL of secondary antibody per well. Seal the plate, incubate the plate for 30 min at 37° C., and repeat the step of plate washing. Add 100 μL of TMB (protected from light) per well. Seal the plate, incubate the plate for 30 min at 37° C., and add 100 μL of the stop solution per well. Gently shake for 30 sec, measure the absorbance with a SpectraMax® 340 PC 384 Absorbance Microplate Reader within 30 min, and read an optical density value at 450 nm. Conduct data analysis using XL Fit software:
Conduct curve fitting using the 4 Parameter Logistic Model or Sigmoidal Dose-Response Model:
X indicating the log value of compound concentration, Y indicating the inhibition ratio (% inhibition), Top indicating the readout of the negative control wells, and bottom indicating the readout of the positive control well.

[7] = target: KDR (VEGFR2) (Homo sapiens (Human), UniProt P35968); experiment: Kinase inhibition, Mobility Shift Assay (VEGFR2); assay type: biochemical
KDR (VEGFR2), sequence (P35968 790-1356): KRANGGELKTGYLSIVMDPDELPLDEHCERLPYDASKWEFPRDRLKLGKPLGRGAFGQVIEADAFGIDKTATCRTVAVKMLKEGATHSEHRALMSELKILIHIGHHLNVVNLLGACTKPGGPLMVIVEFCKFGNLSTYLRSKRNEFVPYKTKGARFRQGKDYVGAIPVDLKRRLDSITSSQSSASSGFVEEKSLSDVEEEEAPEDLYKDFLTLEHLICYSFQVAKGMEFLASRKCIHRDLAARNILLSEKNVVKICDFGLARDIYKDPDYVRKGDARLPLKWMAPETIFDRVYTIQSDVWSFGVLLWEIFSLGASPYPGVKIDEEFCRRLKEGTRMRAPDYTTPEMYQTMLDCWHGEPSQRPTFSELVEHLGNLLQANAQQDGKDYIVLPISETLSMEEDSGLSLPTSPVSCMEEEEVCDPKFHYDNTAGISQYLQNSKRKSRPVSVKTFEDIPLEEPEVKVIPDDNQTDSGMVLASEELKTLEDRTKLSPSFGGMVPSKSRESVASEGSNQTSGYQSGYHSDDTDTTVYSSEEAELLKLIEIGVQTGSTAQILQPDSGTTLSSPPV
Summary of the method: as §1

[8] = target: EGFR (Homo sapiens (Human), UniProt P00533); experiment: Kinase inhibition, Mobility Shift Assay (EGFR); assay type: biochemical
EGFR, sequence (P00533 25-1210): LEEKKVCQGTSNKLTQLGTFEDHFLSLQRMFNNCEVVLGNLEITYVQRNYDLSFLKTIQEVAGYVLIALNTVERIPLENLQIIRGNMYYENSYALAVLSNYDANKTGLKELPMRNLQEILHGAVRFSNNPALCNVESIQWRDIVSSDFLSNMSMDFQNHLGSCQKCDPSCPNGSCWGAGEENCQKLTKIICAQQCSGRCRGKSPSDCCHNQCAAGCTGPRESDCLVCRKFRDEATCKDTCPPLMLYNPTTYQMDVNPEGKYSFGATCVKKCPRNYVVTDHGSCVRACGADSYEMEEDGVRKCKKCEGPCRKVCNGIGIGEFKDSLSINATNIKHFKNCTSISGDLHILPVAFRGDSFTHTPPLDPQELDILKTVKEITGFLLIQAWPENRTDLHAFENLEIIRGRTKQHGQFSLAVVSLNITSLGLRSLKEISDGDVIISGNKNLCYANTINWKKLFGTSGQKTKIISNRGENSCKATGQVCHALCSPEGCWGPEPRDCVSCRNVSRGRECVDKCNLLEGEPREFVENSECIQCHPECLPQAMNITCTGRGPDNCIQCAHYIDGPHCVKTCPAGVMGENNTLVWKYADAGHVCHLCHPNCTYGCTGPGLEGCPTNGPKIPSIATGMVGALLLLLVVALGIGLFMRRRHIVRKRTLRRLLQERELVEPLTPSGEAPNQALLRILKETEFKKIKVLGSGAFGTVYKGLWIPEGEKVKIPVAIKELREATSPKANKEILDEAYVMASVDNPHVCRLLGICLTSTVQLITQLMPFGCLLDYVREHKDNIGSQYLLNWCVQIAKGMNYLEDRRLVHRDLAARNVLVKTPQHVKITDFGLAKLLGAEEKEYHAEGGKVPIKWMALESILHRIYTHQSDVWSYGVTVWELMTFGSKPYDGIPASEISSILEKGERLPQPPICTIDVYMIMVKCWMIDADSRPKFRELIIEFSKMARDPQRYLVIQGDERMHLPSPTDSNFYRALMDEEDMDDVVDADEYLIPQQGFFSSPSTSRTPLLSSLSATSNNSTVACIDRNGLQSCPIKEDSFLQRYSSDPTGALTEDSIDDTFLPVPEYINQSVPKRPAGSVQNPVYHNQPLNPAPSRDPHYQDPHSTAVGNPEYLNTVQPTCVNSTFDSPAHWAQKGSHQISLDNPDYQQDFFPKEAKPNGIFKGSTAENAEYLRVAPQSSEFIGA
Summary of the method: as §1

[9] = Thermodynamic solubility assay; settings: aqueous buffer, pH 2, aqueous buffer, thermodynamic from solid
Procedure: (§2) After sonication for 10 min, fix them on a shaker and shaking for 8 h at room temperature. After shaking, sonicate for 10 min and centrifuge for 15 min at 13,000 rpm. Pipette 0.1 mL of supernatant into a new tube, shake and rinse it with 5 mL, and discard the liquid. Transfer 0.5 mL of the supernatant again to a new tube, centrifuge it for 15 min at 13,000 rpm, then collect the supernatant (if necessary, dilute with water) and analyze it by LC-MS.
(§3) The sample concentrations at 3-5 points are subjected to fitting and reticle for quantification.

[10] = pH 2
Procedure: as §2, §3

Row | Compound | drug concentration in retina [1] | drug concentration in retina ([1]; listed as axitinib) | solubility [2] [micrograms/milliliter] | fraction unbound at 2 h, 2 μM [3] | IC50 [4] [nM] | IC50 [5] [nM] | IC50 [6] [nM] | IC50 [7] [nM] | IC50 [8] [nM] | solubility at 8 h [9] [µg/mL] | solubility [10] [µg/mL]
1 | CNC(=O)c1ccccc1Sc1ccc2c(/C=C/c3ccccn3)n[nH]c2c1 [Axitinib] | below the lower limit of quantitation | below BLOQ | < 2 | – | – | – | – | – | – | – | –
2 | CNC(=O)c1ccccc1Sc1ccc2c(/C=C/c3ccc(OCCN4CCOCC4)cn3)n[nH]c2c1 [Compound I-3, N-methyl-2-({3-[(E)-2-{5-[2-(morpholin-4-yl)ethoxy]pyridin-2-yl}vinyl]-1H-indazol-6-yl}thio)benzamide] | – | – | – | 0.01 to 0.05 | ≤ 1 | ≤ 1 | ≤ 1 | ≤ 1 | 6000 to 60000 | – | –
3 | CNC(=O)c1ccccc1Sc1ccc2c(/C=C/c3ccc(OCCN4CCCC4)cn3)n[nH]c2c1 [Compound I-6, N-methyl-2-({3-[(E)-2-{5-[2-(pyrrolidin-1-yl)ethoxy]pyridin-2-yl}vinyl]-1H-indazol-6-yl}thio)benzamide] | – | – | – | 0.01 to 0.05 | 1 to 10 | ≤ 1 | 1 to 5 | 1 to 10 | 6000 to 60000 | – | –
4 | CNC(=O)c1ccccc1Sc1ccc2c(/C=C/c3cnn(CCN4CCCC4)c3)n[nH]c2c1 [Compound I-9, N-methyl-2-({3-[(E)-2-{1-[2-(pyrrolidin-1-yl)ethyl]-1H-pyrazole-4-yl}vinyl]-1H-indazol-6-yl}thio)benzamide] | – | – | – | 0.01 to 0.05 | 1 to 10 | 1 to 10 | ≤ 1 | 1 to 10 | 6000 to 60000 | – | –
5 | CNC(=O)c1ccccc1Sc1ccc2c(/C=C/c3ccc(OCC4CCCN4)cn3)n[nH]c2c1 (stereo not drawn) [Compound I-14, N-methyl-2-({3-[(E)-2-{5-[(pyrrolidin-2-yl)methoxy]pyridin-2-yl}vinyl]-1H-indazol-6-yl}thio)benzamide] | – | – | – | 0.01 to 0.05 | 1 to 10 | 1 to 10 | – | 1 to 10 | 6000 to 60000 | 46.8 (≈ 96.4 µM) | –
6 | CNC(=O)c1ccccc1Sc1ccc2c(/C=C/c3cc(OCCN4CCCC4)ccn3)n[nH]c2c1 [Compound I-20, N-methyl-2-({3-[(E)-2-{4-[2-(pyrrolidin-1-yl)ethoxy]pyridin-2-yl}vinyl]-1H-indazol-6-yl}thio)benzamide] | – | – | – | 0.01 to 0.05 | 10 to 100 | 10 to 100 | 1 to 5 | 10 to 100 | 6000 to 60000 | – | –
7 | CNC(=O)c1ccccc1Sc1ccc2c(/C=C/c3ccccn3)ncn2c1 [Compound I-26, N-methyl-2-({1-[(E)-2-(pyridin-2-yl)vinyl]imidazo[1,5-a]pyridin-6-yl}thio)benzamide] | – | – | – | – | > 100 | > 100 | – | > 100 | > 60000 | – | 142.0 (≈ 367 µM)
8 | CNC(=O)c1cc(F)ccc1Sc1ccc2c(/C=C/c3ccc(OCCN4CCCC4)cn3)n[nH]c2c1 [Compound I-34, 5-fluoro-N-methyl-2-({3-[(E)-2-{5-[2-(pyrrolidin-1-yl)ethoxy]pyridin-2-yl}vinyl]-1H-indazol-6-yl}thio)benzamide] | – | – | – | > 0.05 | 1 to 10 | 1 to 10 | ≤ 1 | 1 to 10 | 6000 to 60000 | – | –
9 | CN(C)Cc1ccc(/C=C/c2n[nH]c3cc(Sc4ccccc4C(=O)NC4CC4)ccc23)nc1 [Compound I-40, N-cyclopropyl-2-({3-[(E)-2-{5-[(dimethylamino)methyl]pyridin-2-yl}vinyl]-1H-indazol-6-yl}thio)benzamide] | – | – | – | 0.01 to 0.05 | 1 to 10 | ≤ 1 | ≤ 1 | ≤ 1 | 6000 to 60000 | – | –
10 | CCNC(=O)c1cc(F)ccc1Sc1ccc2c(/C=C/c3ccc(CN4CCCC4)cn3)n[nH]c2c1 [Compound I-97, N-ethyl-5-fluoro-2-({3-[(E)-2-{5-[(pyrrolidin-1-yl)methyl]pyridin-2-yl}vinyl]-1H-indazol-6-yl}thio)benzamide] | – | – | – | 0.01 to 0.05 | 1 to 10 | 1 to 10 | ≤ 1 | 1 to 10 | 6000 to 60000 | – | –
11 | CNC(=O)c1cc(F)ccc1Sc1ccc2c(/C=C/c3cnn(CCCN4CCCC4)c3)n[nH]c2c1 [Compound I-106] | – | – | – | > 0.05 | – | – | – | 1 to 10 | 6000 to 60000 | 1580 (≈ 3130 µM) | –
